{"source": "patent US7875647B2", "about": "“Heteroaryl-pyrazole derivatives as cannabinoid CB1 receptor antagonists” (Green Cross Corporation, priority 2006, dated 2011)"}
{"biological_target": "T1, Cannabinoid-1 receptor (CB1R) (Rattus norvegicus, UniProt P20272)", "T1 construct": "The tissue obtained from the brain of SD rats was homogenized; from tissue; host or cells: brain of SD rats (membrane pellet of the homogenate)", "T1 sequence (P20272 whole entry)": "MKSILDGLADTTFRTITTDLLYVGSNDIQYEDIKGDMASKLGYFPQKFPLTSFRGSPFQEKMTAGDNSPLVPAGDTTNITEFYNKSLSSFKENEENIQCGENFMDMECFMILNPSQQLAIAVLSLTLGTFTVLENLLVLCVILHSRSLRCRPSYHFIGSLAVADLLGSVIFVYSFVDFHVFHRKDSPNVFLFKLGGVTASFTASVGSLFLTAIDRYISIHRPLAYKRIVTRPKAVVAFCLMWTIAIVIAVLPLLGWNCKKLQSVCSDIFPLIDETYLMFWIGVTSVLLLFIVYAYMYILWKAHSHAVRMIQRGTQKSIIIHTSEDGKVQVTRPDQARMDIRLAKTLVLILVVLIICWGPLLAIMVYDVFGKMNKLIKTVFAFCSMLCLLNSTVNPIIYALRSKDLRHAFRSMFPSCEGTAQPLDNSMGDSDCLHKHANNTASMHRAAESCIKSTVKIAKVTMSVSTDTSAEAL", "assay": "Cannabinoid-1 receptor (CB1R) binding affinity assay ([3H]CP-55940, rat CB-1 receptor binding protocol)", "conditions": "brain tissue of SD rats, [3H]CP-55940, 30° C. 60 min; read-out: IC50", "units": {"IC50": "nM"}}
{"smiles": "Clc1ccc(-c2c(Br)c(-c3nnc(C4CCC4)o3)nn2-c2ccc(Cl)cc2Cl)cc1", "note": "[Example 340, 2-(4-bromo-5-(4-chlorophenyl)-1-(2,4-dichlorophenyl)-1H-pyrazol-3-yl)-5-cyclobutyl-1,3,4-oxadiazole]", "IC50": 35.5}
{"smiles": "Clc1ccc(-c2c(Br)c(-c3nnc(C4CCCCC4)o3)nn2-c2ccc(Cl)cc2Cl)cc1", "note": "[Example 341, 2-(4-bromo-5-(4-chlorophenyl)-1-(2,4-dichlorophenyl)-1H-pyrazol-3-yl)-5-cyclohexyl-1,3,4-oxadiazole]", "IC50": 81.4}
{"smiles": "CCC(C)(C)c1nnc(-c2nn(-c3ccc(Cl)cc3Cl)c(-c3ccc(Cl)cc3)c2Br)o1", "note": "[Example 342, 2-(4-bromo-5-(4-chlorophenyl)-1-(2,4-dichlorophenyl)-1H-pyrazol-3-yl)-5-tert-pentyl-1,3,4-oxadiazole]", "IC50": 27.8}
{"smiles": "CC(C)(c1ccc(Cl)cc1)c1nnc(-c2nn(-c3ccc(Cl)cc3Cl)c(-c3ccc(Cl)cc3)c2Br)o1", "note": "[Example 343, 2-(4-bromo-5-(4-chlorophenyl)-1-(2,4-dichlorophenyl)-1H-pyrazol-3-yl)-5-(2-(4-chlorophenyl)propan-2-yl)-1,3,4-oxadiazole]", "IC50": 22.2}
{"smiles": "Clc1ccc(-c2c(Br)c(-c3nnc(C4(c5ccc(Cl)cc5)CC4)o3)nn2-c2ccc(Cl)cc2Cl)cc1", "note": "[Example 344, 2-(4-bromo-5-(4-chlorophenyl)-1-(2,4-dichlorophenyl)-1H-pyrazol-3-yl)-5-(1-(4-chlorophenyl)cyclopropyl)-1,3,4-oxadiazole]", "IC50": 11.6}
{"smiles": "Cc1c(-c2nnc(C3CCC3)s2)nn(-c2ccc(Cl)cc2Cl)c1-c1ccc(Cl)cc1", "note": "[Example 345, 2-(5-(4-chlorophenyl)-1-(2,4-dichlorophenyl)-4-methyl-1H-pyrazol-3-yl)-5-cyclobutyl-1,3,4-thiadiazole]", "IC50": 4.08}
{"smiles": "Cc1c(-c2nnc(C3CCCC3)s2)nn(-c2ccc(Cl)cc2Cl)c1-c1ccc(Cl)cc1", "note": "[Example 346, 2-(5-(4-chlorophenyl)-1-(2,4-dichlorophenyl)-4-methyl-1H-pyrazol-3-yl)-5-cyclopentyl-1,3,4-thiadiazole]", "IC50": 8.8}
{"smiles": "Cc1c(-c2nnc(-c3cccs3)s2)nn(-c2ccc(Cl)cc2Cl)c1-c1ccc(Cl)cc1", "note": "[Example 351, 2-(5-(4-chlorophenyl)-1-(2,4-dichlorophenyl)-4-methyl-1H-pyrazol-3-yl)-5-(thiophen-2-yl)-1,3,4-thiadiazole]", "IC50": 63.3}
{"smiles": "Cc1c(-c2nnc(Cc3ccccn3)s2)nn(-c2ccc(Cl)cc2Cl)c1-c1ccc(Cl)cc1", "note": "[Example 352, 2-(5-(4-chlorophenyl)-1-(2,4-dichlorophenyl)-4-methyl-1H-pyrazol-3-yl)-5-(pyridin-2-ylmethyl)-1,3,4-thiadiazole]", "IC50": 41.2}
{"smiles": "Cc1c(-c2nnc(C(C)C)s2)nn(-c2ccc(Cl)cc2Cl)c1-c1ccc(Cl)cc1", "note": "[Example 353, 2-(5-(4-chlorophenyl)-1-(2,4-dichlorophenyl)-4-methyl-1H-pyrazol-3-yl)-5-isopropyl-1,3,4-thiadiazole]", "IC50": 21.5}
{"smiles": "Cc1c(-c2nnc(Cc3ccccc3)s2)nn(-c2ccc(Cl)cc2Cl)c1-c1ccc(Cl)cc1", "note": "[Example 354, 2-benzyl-5-(5-(4-chlorophenyl)-1-(2,4-dichlorophenyl)-4-methyl-1H-pyrazol-3-yl)-1,3,4-thiadiazole]", "IC50": 26}
{"smiles": "CCCCc1nnc(-c2nn(-c3ccc(Cl)cc3Cl)c(-c3ccc(Cl)cc3)c2C)s1", "note": "[Example 355, 2-Butyl-5-(5-(4-chlorophenyl)-1-(2,4-dichlorophenyl)-4-methyl-1H-pyrazol-3-yl)-1,3,4-thiadiazole]", "IC50": 46}
{"smiles": "Cc1c(-c2nnc(-c3ccccc3)s2)nn(-c2ccc(Cl)cc2Cl)c1-c1ccc(Cl)cc1", "note": "[Example 356, 2-(5-(4-Chlorophenyl)-1-(2,4-dichlorophenyl)-4-methyl-1H-pyrazol-3-yl)-5-phenyl-1,3,4-thiadiazole]", "IC50": 231}
{"smiles": "Cc1c(-c2nnc(CC3CCCC3)s2)nn(-c2ccc(Cl)cc2Cl)c1-c1ccc(Cl)cc1", "note": "[Example 357, 2-(5-(4-Chlorophenyl)-1-(2,4-dichlorophenyl)-4-methyl-1H-pyrazol-3-yl)-5-(cyclopentylmethyl)-1,3,4-thiadiazole]", "IC50": 30.9}
{"smiles": "Cc1c(-c2nnc(C3CCOCC3)s2)nn(-c2ccc(Cl)cc2Cl)c1-c1ccc(Cl)cc1", "note": "[Example 358, 2-(5-(4-Chlorophenyl)-1-(2,4-dichlorophenyl)-4-methyl-1H-pyrazol-3-yl)-5-(tetrahydro-2H-pyran-4-yl)-1,3,4-thiadiazole]", "IC50": 54.3}
{"smiles": "Cc1c(-c2nnc(C3CCCO3)s2)nn(-c2ccc(Cl)cc2Cl)c1-c1ccc(Cl)cc1", "note": "(stereo not shown) [Example 359, 2-(5-(4-Chlorophenyl)-1-(2,4-dichlorophenyl)-4-methyl-1H-pyrazol-3-yl)-5-(tetrahydrofuran-2-yl)-1,3,4-thiadiazole]", "IC50": 27.6}
{"smiles": "Cc1nnc(-c2nn(-c3ccc(Cl)cc3Cl)c(-c3ccc(Cl)cc3)c2C)s1", "note": "[Example 360, 2-(5-(4-chlorophenyl)-1-(2,4-dichlorophenyl)-4-methyl-1H-pyrazol-3-yl)-5-methyl-1,3,4-thiadiazole]", "IC50": 97.2}
{"smiles": "CCCCCc1nnc(-c2nn(-c3ccc(Cl)cc3Cl)c(-c3ccc(Cl)cc3)c2C)s1", "note": "[Example 361, 2-(5-(4-Chlorophenyl)-1-(2,4-dichlorophenyl)-4-methyl-1H-pyrazol-3-yl)-5-pentyl-1,3,4-thiadiazole]", "IC50": 69.2}
{"smiles": "Cc1c(-c2nnc(C3CCCCCC3)s2)nn(-c2ccc(Cl)cc2Cl)c1-c1ccc(Cl)cc1", "note": "[Example 362, 2-(5-(4-Chlorophenyl)-1-(2,4-dichlorophenyl)-4-methyl-1H-pyrazol-3-yl)-5-cycloheptyl-1,3,4-thiadiazole]", "IC50": 36.1}
{"smiles": "Cc1c(-c2nnc(C3CCC3)s2)nn(-c2ccc(Cl)cc2Cl)c1-c1ccc(Br)cc1", "note": "[Example 364, 2-(5-(4-Bromophenyl)-1-(2,4-dichlorophenyl)-4-methyl-1H-pyrazol-3-yl)-5-cyclobutyl-1,3,4-thiadiazole]", "IC50": 34.4}
{"smiles": "Cc1c(-c2nnc(CC3CCCCC3)s2)nn(-c2ccc(Cl)cc2Cl)c1-c1ccc(Cl)cc1", "note": "[Example 365, 2-(5-(4-Chlorophenyl)-1-(2,4-dichlorophenyl)-4-methyl-1H-pyrazol-3-yl)-5-(cyclohexylmethyl)-1,3,4-thiadiazole]", "IC50": 20.4}
{"smiles": "Cc1c(-c2nnc(C3CCCC3)s2)nn(-c2ccc(Cl)cc2Cl)c1-c1ccc(Br)cc1", "note": "[Example 366, 2-(5-(4-Bromophenyl)-1-(2,4-dichlorophenyl)-4-methyl-1H-pyrazol-3-yl)-5-cyclopentyl-1,3,4-thiadiazole]", "IC50": 18.1}
{"smiles": "CCC(C)c1nnc(-c2nn(-c3ccc(Cl)cc3Cl)c(-c3ccc(Cl)cc3)c2C)s1", "note": "(stereo not shown) [Example 367, 2-sec-Butyl-5-(5-(4-chlorophenyl)-1-(2,4-dichlorophenyl)-4-methyl-1H-pyrazol-3-yl)-1,3,4-thiadiazole]", "IC50": 24.8}
{"smiles": "CCCC(C)c1nnc(-c2nn(-c3ccc(Cl)cc3Cl)c(-c3ccc(Cl)cc3)c2C)s1", "note": "(stereo not shown) [Example 368, 2-(5-(4-Chlorophenyl)-1-(2,4-dichlorophenyl)-4-methyl-1H-pyrazol-3-yl)-5-(pentan-2-yl)-1,3,4-thiadiazole]", "IC50": 13.4}
{"smiles": "Cc1c(-c2nnc(C(C)(C)C)s2)nn(-c2ccc(Cl)cc2Cl)c1-c1ccc(Br)cc1", "note": "[Example 369, 2-(5-(4-Bromophenyl)-1-(2,4-dichlorophenyl)-4-methyl-1H-pyrazol-3-yl)-5-tert-butyl-1,3,4-thiadiazole]", "IC50": 12.5}
